The term EC50 denotes the concentration needed to bring the measured effect to its halfway point. By IC50 is commonly meant the point on the concentration scale where inhibition reaches its midpoint. Lower therefore signals inhibition by little substance.

We go through 69 compounds from PubChem BioAssay AID179 (DTP/NCI, 2004).

The test system of the experiment is CEM cells HIV-1 protection, formazan growth assay. As to the kind of experiment: NCI AIDS Antiviral Assay. The settings on record: for IC50: measured here: growth of uninfected CEM cells. The procedure, abridged:
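Human CEM cells, uninfected and HIV-1-infected, exposed to five drug concentrations; growth measured by soluble formazan assay and scored as percent protection from infection, with protecting compounds retested.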

Active and inactive are the calls of the source.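 How the source made its calls: active means compounds giving half or more protection of infected cells from virus-caused growth loss, again on retest; inactive means the rest.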

As to `Cc1c(C(=O)NCCO)[n+](=O)c2cc(Cl)ccc2n1[O-]`, the EC50 was over 832 µM and the IC50 was 56.2 µM.

`CC(C)=CCC/C(C)=C/CN1Cc2cccc3[nH]c(=S)n(c23)CC1C` (centres undefined): the EC50 was over 18.2 µM.

Turning to `CCOc1ccc2ccccc2c1NC1=NCCO1`, the EC50 was over 200 µM and the IC50 was determined as 107 µM.

Regarding `CCOC(=O)NC(Nc1ccc(F)cc1)(C(=O)OCC)C(F)(F)F` (centres undefined), the result was inactive.

On to `CC(C)CCCC(C)[C@H]1CCC2C3C[C@@H](CCC=C(c4cc(Cl)c(O)c(C(=O)O)c4)c4cc(Cl)c(O)c(C(=O)O)c4)[C@H]4CCCC[C@]4(C)C3CC[C@@]21C` (some centres undefined), for which the EC50 was 20 µM and the IC50 is over 100 µM.

Consider `COc1ccc(C(=O)Nc2cc(C(=CCC[C@H]3CC[C@@]4(C)[C@@H](CC[C@@H]5[C@@H]4CC[C@]4(C)[C@@H](C(C)CCCC(C)C)CC[C@@H]54)C3)c3cc(NC(=O)c4ccc(OC)c(C(=O)O)c4)c(OC)c(C(=O)O)c3)cc(C(=O)O)c2OC)cc1C(=O)O` (some centres undefined), for which the EC50 was 36.3 µM and the IC50 is 49 µM.

Turning to `CN(C)C=Nc1c2ccccc2nc2ccccc12`, the EC50 is over 200 µM and the IC50 came out at 2.45 µM.

Consider `CCOP(C)(=O)/C(Cc1ccc(OC)c(OC)c1)=N\O` (centres undefined), for which the EC50 is over 200 µM and the IC50 was over 200 µM.

Consider `CC(=O)Nc1ccc(C(=O)N[C@@H]2C(=O)N3[C@@H]2SC(C)(C)[C@@H]3C(=O)O)cn1`, for which the EC50 was 56.2 µM and the IC50 was 75.9 µM.

Regarding `O=CC(NC(=O)N(CCCl)N=O)C(O)C(O)C(O)CO` (centres undefined), the EC50 was over 398 µM and the IC50 was over 398 µM.

As to `c1ccc(C2=NOC3(c4ccccc4)SC4CCCCC4CN23)cc1` (centres undefined), the EC50 is over 10.7 µM and the IC50 was over 10.7 µM.

`O=C(Nc1nc2ncn(CCNCCn3cnc4nc(NC(=O)c5ccccc5)[nH]c(=O)c43)c2c(=O)[nH]1)c1ccccc1`: the EC50 was over 23.4 µM and the IC50 is over 23.4 µM.

In the case of `O=C(O)c1ccc2[nH]c(=O)oc2c1`, the EC50 was over 200 µM and the IC50 is over 200 µM.

For the compound `C[C@@]12C[C@@H](OC(=O)[C@]1(C)O)[C@@H]([C@]1(O)CC[C@H]3[C@@H]4C[C@H]5O[C@]56CC=CC(=O)[C@]6(C)[C@H]4CC[C@@]31C)C2`, the EC50 is 0.02 µM and the IC50 came to 0.324 µM.

For `Cc1cc2c(c(=O)[nH]1)C(=O)OC2`, the EC50 was over 1100 µM and the IC50 was over 1100 µM.

Take `Cc1ccccc1NC(=O)C(=O)C(C(=O)c1ccccc1F)C1OC(=O)c2ccccc21` (centres undefined): the EC50 is over 302 µM and the IC50 came out at 51.3 µM.

With `COc1ccc2c(c1)[n+](=O)c(C(C)=O)c(C)n2[O-]`, the EC50 was over 1000 µM and the IC50 amounted to 355 µM.

On to `CC1(C)C2CCC3(C2)CS(=O)(=O)N2OC231` (centres undefined), for which the EC50 is over 219 µM and the IC50 was 120 µM.

In the case of `Nc1nc2c(ncn2C2C=CC(O)CC2)c(=O)[nH]1` (centres undefined), the EC50 was over 55 µM and the IC50 is over 55 µM.

Turning to `CCOc1c(OC)cc(CNNc2nccs2)cc1OC`, the EC50 was over 200 µM and the IC50 was 89.1 µM.

As to `CC(C)c1cccc2sc(NC(=O)C(=O)C(C#N)c3cccc4ccccc34)nc12` (centres undefined), the outcome was inactive.

For the compound `COC(=O)C1=C(C(=O)OC)C2C(C)=CC(C)=CN2C(C(=O)OC)=C1C(=O)OC` (centres undefined), the EC50 is over 200 µM and the half-inhibitory concentration (IC50) was over 200 µM.

With `COC(=O)[C@H](COC(=O)/C=C/c1ccc(OC(C)=O)c(OC(C)=O)c1)NC(=O)/C=C/c1ccc(OC(C)=O)c(OC(C)=O)c1`, the EC50 is over 100 µM and the IC50 is 17.8 µM.

Take `COc1ccc(N=Nc2c(C)c(C#N)c(=S)n(C3OC(COC(C)=O)C(OC(C)=O)C(OC(C)=O)C3OC(C)=O)c2C)cc1` (centres undefined): the EC50 was over 200 µM and the IC50 is over 200 µM.

Consider `Cc1c(N)nc(C2CC(=O)N2CC(N)C(N)=O)nc1C(=O)NC(C(=O)NC(C)C(O)C(C)C(=O)NC(C(=O)NCCc1nc(-c2nc(C(=O)NCCNCC(C)O)cs2)cs1)C(C)O)C(OC1OC(CO)C(O)C(O)C1OC1OC(CO)C(O)C(OC(N)=O)C1O)c1cnc[nH]1` (centres undefined), for which the result was inactive.

`c1ccc(C(=C2C3CCC2C2CSCC32)c2ccccc2)cc1` (centres undefined): the EC50 was over 93.3 µM and the IC50 was determined as 46.8 µM.

`CC(CS(C)(=O)=O)S(=O)(=O)O` (centres undefined): the EC50 was over 200 µM and the IC50 is over 200 µM.

On to `CC1OC(Oc2c(-c3cc(O)c(O)c(O)c3)oc3cc(O)cc(O)c3c2=O)C(O)C(O)C1O` (centres undefined), for which the result was inactive.

For `COc1ccc(C2c3cc4c(cc3OC(N3CCOCC3)C2C)OCO4)cc1` (centres undefined), the EC50 was over 200 µM and the IC50 stood at 53.7 µM.

As for `O=C1/C(=C/c2cccc(Cl)c2)CCc2ccccc21`, the EC50 was over 10 µM and the IC50 was over 10 µM.

Consider `CC#CC(O)(C(=O)OC1CC2CCC(C1)N2C)C1CCCC1` (centres undefined), for which the EC50 is over 200 µM and the IC50 was over 200 µM.

With `CSc1nc(N)n(C(=O)c2ccccc2Br)n1`, the EC50 was over 417 µM and the IC50 is over 417 µM.

With `O=C(OCCN=c1c2ccccc2ccc2ccccc12)c1cc([N+](=O)[O-])cc([N+](=O)[O-])c1`, the EC50 is over 200 µM and the half-maximal inhibitory concentration (IC50) was determined as 158 µM.

Consider `N=C(c1ccccc1)N(O)C1CCCCC1`, for which the result was inactive.

With `Cc1ncc([N+](=O)[O-])n1CCNC(=O)CCCn1cnc([N+](=O)[O-])n1`, the EC50 was over 200 µM and the IC50 is over 200 µM.

For `COC(=O)c1nc2[nH]n(-c3ccccc3)c(=O)c2c2c1CCCCCCCCCC2`, the EC50 was over 123 µM and the IC50 stood at 115 µM.

As to `CC(=O)OC1CCC2(C)CC3C=CC2(OO3)C1(C)C` (centres undefined), the EC50 was over 200 µM and the IC50 worked out at 10.7 µM.

As for `C[n+]1c2ccccc2c(CNC(CCC(N)=O)C(=O)O)c2ccccc21` (centres undefined), the outcome was inactive.

Turning to `C[C@@]12C[C@@H](c3ccccc3O1)N1CCCCSC1=N2`, the EC50 was over 200 µM and the IC50 was over 200 µM.

In the case of `CC(=O)C(CCC#N)(CCC#N)CCC#N`, the EC50 was over 200 µM and the IC50 was over 200 µM.

As to `O=S1(=O)C[C@@H](NCc2ccccc2)[C@H](NCc2ccccc2)C1`, the EC50 was over 200 µM and the IC50 is over 200 µM.

For the compound `Cc1csc(=Nc2ccccc2)n1CCC(O)(P(=O)(O)O)P(=O)(O)O`, the EC50 was over 200 µM and the IC50 was found to be 9.55 µM.

In the case of `O=C(NCCCCN1CC2CCCC2C1)C(C1CCCCC1)C1CCCCC1` (centres undefined), the EC50 was over 200 µM and the IC50 stood at 10.7 µM.

In the case of `CCOC(=O)CC(=O)Cc1oc2c(C(C)=O)c(O)c(C)c(O)c2c1C`, the EC50 is over 200 µM and the 50% inhibitory concentration (IC50) is 21.4 µM.

For the compound `O=S(=O)([O-])[O-].[Fe+2].c1ccc(/C(=N\Nc2ccccn2)c2ccccn2)cc1`, the outcome was inactive.

In the case of `Clc1ccc(C(Cc2cccc(Cl)c2)c2c(Cl)nc(N3CCNCC3)nc2Cl)cc1` (centres undefined), the EC50 was over 200 µM and the IC50 is 17.4 µM.

Compound `CCCNC(=O)Sc1ccccc1C(=O)N[C@@H](C)C(N)=O` gave an EC50 of over 4.17 µM and an IC50 of 1.41 µM.

Regarding `CCOC(=O)CCC1(C(=O)OC)CCCC1=O` (centres undefined), the EC50 is over 1020 µM and the IC50 is over 1020 µM.

On to `CC(=Nc1ccccc1S)c1c(O)ccc2c(C)cc(=O)oc12`, for which the EC50 was over 11.5 µM and the IC50 was over 11.5 µM.

For the compound `CC(C)C1NC(=O)c2ccccc2S1` (centres undefined), the EC50 is over 871 µM and the IC50 was determined as 195 µM.

`NC(N)=NS(=O)(=O)c1ccc(NC(=O)c2cccc3c(=O)c4ccccc4[nH]c23)cc1`: the outcome was inactive.

In the case of `CCOC(=O)C(CCCCn1cnc2ncnc(Cl)c21)(NC(C)=O)C(=O)OCC`, the outcome was inactive.

As to `CC(=O)C1CCC2[C@@H]3CCC4c5nn(-c6ccccc6)nc5CC[C@]4(C)C3CC[C@]12C` (some centres undefined), the result was inactive.

As for `O=S(=O)(O)c1ccc2c(N=Nc3ccc(S(=O)(=O)O)c4ccccc34)c(O)c(S(=O)(=O)O)cc2c1`, the EC50 is over 100 µM, the outcome was inactive and the IC50 is over 100 µM.

`CN1Cc2ccccc2S(=O)(=O)n2cccc2C1=O`: the EC50 is over 200 µM and the IC50 was over 200 µM.

`CCCCCCCCCCCCCCCCN[Si](NCCCCCCCCCCCCCCCC)(NCCCCCCCCCCCCCCCC)NCCCCCCCCCCCCCCCC`: the EC50 is over 240 µM and the IC50 is 138 µM.

For `CCOC(=O)COc1ccc2c(C)c(CCN(CC)CC)c(=O)oc2c1`, the EC50 is over 631 µM and the IC50 was over 631 µM.

In the case of `NP(=O)(OCC1=CC(=O)c2ccccc2C1=O)N(CCBr)CCBr` (centres undefined), the outcome was inactive.

In the case of `COc1c(Cc2ccccc2O)c(O)c(Cc2cc(Cc3ccccc3O)ccc2O)c(O)c1C(=O)CCc1ccccc1`, the EC50 was over 60.3 µM and the IC50 amounted to 21.4 µM.

Take `O=C(Nc1ccc(Cl)cc1)C(=O)C1=C(O)c2ccccc2OC1`: the EC50 was over 102 µM and the IC50 is over 102 µM.

`Cc1cc(=O)oc2c(C)c(O)ccc12`: the EC50 is over 138 µM and the IC50 was found to be 97.7 µM.

For `CC(=O)OC1C(CNC(=O)N(C)N=O)OC(OC2(CNC(=O)N(C)N=O)OC(CNC(=O)N(C)N=O)C(OC(C)=O)C2OC(C)=O)C(OC(C)=O)C1OC(C)=O` (centres undefined), the EC50 was over 27.5 µM and the IC50 was over 27.5 µM.

`CCOC1C2c3cc(OC)c(OC)cc3CC(C#N)(c3ccccc32)N1C(=O)c1ccccc1` (centres undefined): the outcome was inactive.

With `CCOP(=O)(OCC)c1ccc(=O)[nH]c1-c1cccs1`, the EC50 is over 200 µM and the IC50 is over 200 µM.

As for `COC(=O)C(Cc1c[nH]c2ccccc12)NC(=O)C(Cc1c[nH]c2ccccc12)NC(=O)OCc1ccccc1` (centres undefined), the result was inactive.

Regarding `CC#CCC(OC(C)=O)c1ccccc1` (centres undefined), the outcome was inactive.

As for `C=CCOc1ccc2c(C)cc(=O)oc2c1C`, the EC50 is over 112 µM and the IC50 came out at 102 µM.

For the compound `CN=S(=O)(c1ccccc1)C1(C)CC(C)=C(C)CS1=O` (centres undefined), the EC50 is over 200 µM and the IC50 is 132 µM.

With `C=CCOc1ccc(/C(N=Nc2ccc(Cl)cc2)=N/NC(=O)c2ccccc2)cc1OC`, the EC50 was over 200 µM and the IC50 stood at 87.1 µM.
